Legend:
Assay type in all cases: in vivo
Amaranthus retroflexus [1] = experiment: Post-emergence herbicidal action; details: rated visually after about 3 weeks vs untreated controls
In short: (§1)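 Greenhouse-grown plants in sandy loam were sprayed at the one-leaf stage, 2 to 3 weeks after sowing, with compounds formulated as WP or EC in water plus 0.5% additive at 600 l/ha, at rates of 20 g/ha and less. Activity was scored visually after about 3 weeks against untreated controls (100% = dead).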

Alopecurus myosuroides [2] = experiment: Post-emergence herbicidal action; details: rated visually after about 3 weeks vs untreated controls
In short: as §1

Echinochloa crus-galli [3] = experiment: Post-emergence herbicidal action; details: rated visually after about 3 weeks vs untreated controls
In short: as §1

Setaria viridis [4] = experiment: Post-emergence herbicidal action; details: rated visually after about 3 weeks vs untreated controls
In short: as §1

Avena fatua [5] = experiment: Post-emergence herbicidal action; details: application rate 20 g/ha, rated visually after about 3 weeks vs untreated controls
In short: as §1

Abutilon theophrasti [6] = experiment: Post-emergence herbicidal action; details: rated visually after about 3 weeks vs untreated controls
In short: as §1

Matricaria inodora [7] = experiment: Post-emergence herbicidal action; details: rated visually after about 3 weeks vs untreated controls
In short: as §1

Viola tricolor [8] = experiment: Post-emergence herbicidal action
In short: as §1

Polygonum convolvulus [9] = experiment: Post-emergence herbicidal action
In short: as §1

Digitaria sanguinalis [10] = experiment: Post-emergence herbicidal action; details: rated visually after about 3 weeks vs untreated controls
In short: as §1

Hordeum murinum = experiment: Post-emergence herbicidal action; details: application rate 20 g/ha
In short: as §1

Veronica persica [11] = experiment: Post-emergence herbicidal action
In short: as §1

Pharbitis purpurea [12] = experiment: Post-emergence herbicidal action; details: rated visually after about 3 weeks vs untreated controls
In short: as §1

Stellaria media = experiment: Post-emergence herbicidal action; details: application rate 5 g/ha, rated visually after about 3 weeks vs untreated controls
In short: as §1

Oryza sativa = experiment: Post-emergence crop plant compatibility; details: application rate 5 g/ha
In short: (§2)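 Greenhouse crop plants in sandy loam sprayed at one-leaf stage (2-3 weeks after sowing) with WP or EC formulations plus 0.5% additive, 600 l/ha water, at 5 g/ha or 20 g/ha. Damage scored visually after about 3 weeks as % versus untreated controls (100% = plants dead).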

Zea mays [13] = experiment: Post-emergence crop plant compatibility; details: application rate 5 g/ha
In short: as §2

Triticum aestivum [14] = experiment: Post-emergence crop plant compatibility; details: application rate 5 g/ha
In short: as §2

Amaranthus retroflexus [15] = experiment: Pre-emergence herbicidal action; details: application rate 20 g/ha
Source text: (§3) B. Pre-Emergence Herbicidal Action and Crop Plant Compatibility Seeds of monocotyledonous and dicotyledonous weed plants and crop plants were placed in plastic or organic planting pots and covered with soil. The compounds of the invention, formulated in the form of wettable powders (WP) or as emulsion concentrates (EC), were then applied to the surface of the covering soil as aqueous suspension or emulsion with addition of 0.5% additive at a water application rate equivalent to 600 l/ha (converted). After the treatment, the pots were placed in a greenhouse and kept under good growth conditions for the test plants. After about 3 weeks, the effect of the preparations was scored visually in comparison with untreated controls as percentages. For example, 100% activity=the plants have died, 0% activity=like control plants. Tables B1 to B13 below show the effects of selected compounds of the general formula (I) according to Tables I.1 to I.36 on various harmful plants and at an application rate corresponding to 80 g/ha or less, which were obtained by the experimental procedure mentioned above.

Alopecurus myosuroides [16] = experiment: Pre-emergence herbicidal action
Source text: as §3

Echinochloa crus-galli [17] = experiment: Pre-emergence herbicidal action
Source text: as §3

Setaria viridis [18] = experiment: Pre-emergence herbicidal action; details: application rate 20 g/ha
Source text: as §3

Avena fatua [19] = experiment: Pre-emergence herbicidal action; details: application rate 80 g/ha
Source text: as §3

Abutilon theophrasti [20] = experiment: Pre-emergence herbicidal action; details: application rate 20 g/ha
Source text: as §3

Matricaria inodora [21] = experiment: Pre-emergence herbicidal action; details: application rate 20 g/ha
Source text: as §3

Viola tricolor [22] = experiment: Pre-emergence herbicidal action; details: application rate 20 g/ha
Source text: as §3

Polygonum convolvulus [23] = experiment: Pre-emergence herbicidal action; details: application rate 20 g/ha
Source text: as §3

Digitaria sanguinalis [24] = experiment: Pre-emergence herbicidal action; details: application rate 20 g/ha
Source text: as §3

Veronica persica [25] = experiment: Pre-emergence herbicidal action; details: application rate 20 g/ha
Source text: as §3

Lolium rigidum [26] = experiment: Pre-emergence herbicidal action; details: application rate 80 g/ha
Source text: as §3

Pharbitis purpurea [27] = experiment: Pre-emergence herbicidal action; details: application rate 20 g/ha
Source text: as §3

Zea mays [28] = experiment: Pre-emergence crop plant compatibility; details: application rate 20 g/ha
Source text: (§4) B. Pre-Emergence Herbicidal Action and Crop Plant Compatibility
as §3, with “Seeds” for “B. Pre-Emergence Herbicidal Action and Crop Plant Compatibility Seeds”, “plants.” for “plants. Tables B1 to B13 below show the effects of selected compounds of the general formula (I) according to Tables I.1 to I.36 on various harmful plants and at an application rate corresponding to 80 g/ha or less, which were obtained by the experimental procedure mentioned above.”
(§5) Tables B14 to B16 below show the crop plant compatibilities of selected compounds of the general formula (I) according to Tables I.1 to I.36 at an application rate corresponding to 20 g/ha, which were obtained in experiments according to the experimental procedure mentioned above. Here, the observed effects on selected crop plants are stated in comparison to the untreated controls (values in %).

Lolium rigidum [29] = experiment: Post-emergence herbicidal action; details: application rate 20 g/ha, rated visually after about 3 weeks vs untreated controls
In short: as §1

Triticum aestivum [30] = experiment: Pre-emergence crop plant compatibility; details: application rate 20 g/ha
Source text: as §4
as §3, with “Seeds” for “B. Pre-Emergence Herbicidal Action and Crop Plant Compatibility Seeds”, “plants.” for “plants. Tables B1 to B13 below show the effects of selected compounds of the general formula (I) according to Tables I.1 to I.36 on various harmful plants and at an application rate corresponding to 80 g/ha or less, which were obtained by the experimental procedure mentioned above.”
as §5

| Oryza sativa (efficacy in %) (Oryza sativa) [%] | Zea mays (efficacy in %) (Zea mays [13]) [%] | SMILES | Amaranthus retroflexus (efficacy in %) (Amaranthus retroflexus [1]; application rate 5 g/ha) [%] | Echinochloa crus-galli (efficacy in %) (Echinochloa crus-galli [3]; application rate 5 g/ha) [%] | Avena fatua (efficacy in %) (Avena fatua [5]) [%] | Abutilon theophrasti (efficacy in %) (Abutilon theophrasti [6]; application rate 5 g/ha) [%] | Matricaria inodora (efficacy in %) (Matricaria inodora [7]; application rate 20 g/ha) [%] | Digitaria sanguinalis (efficacy in %) (Digitaria sanguinalis [10]; application rate 5 g/ha) [%] | Veronica persica (efficacy in %) (Veronica persica [11]; application rate 5 g/ha) [%] | Pharbitis purpurea (efficacy in %) (Pharbitis purpurea [12]; application rate 5 g/ha) [%] | Amaranthus retroflexus (efficacy in %) (Amaranthus retroflexus [15]) [%] | Setaria viridis (efficacy in %) (Setaria viridis [18]) [%] | Avena fatua (efficacy in %) (Avena fatua [19]) [%] | Abutilon theophrasti (efficacy in %) (Abutilon theophrasti [20]) [%] | Matricaria inodora (efficacy in %) (Matricaria inodora [21]) [%] | Viola tricolor (efficacy in %) (Viola tricolor [22]) [%] | Polygonum convolvulus (efficacy in %) (Polygonum convolvulus [23]) [%] | Digitaria sanguinalis (efficacy in %) (Digitaria sanguinalis [24]) [%] | Veronica persica (efficacy in %) (Veronica persica [25]) [%] | Lolium rigidum (efficacy in %) (Lolium rigidum [26]) [%] | also measured |
| --- | --- | --- | --- | --- | --- | --- | --- | --- | --- | --- | --- | --- | --- | --- | --- | --- | --- | --- | --- | --- | --- |
| 20 | 20 | Cn1c(C(F)(F)F)cc(=O)n(-c2cc(Oc3cccnc3OCC(=O)OCC#N)c(Cl)cc2F)c1=O [I.15-176] | 100 | 100 | 90 | 100 | 100 | 100 | 90 | 100 | – | – | – | – | – | – | – | – | – | – | Alopecurus myosuroides (efficacy in %) (Alopecurus myosuroides [2]; application rate 5 g/ha): 80%; Setaria viridis (efficacy in %) (Setaria viridis [4]; application rate 5 g/ha): 100%; Viola tricolor (efficacy in %) (Viola tricolor [8]; application rate 5 g/ha): 100%; Polygonum convolvulus (efficacy in %) (Polygonum convolvulus [9]; application rate 5 g/ha): 100%; Hordeum murinum (efficacy in %) (Hordeum murinum): 100%; Stellaria media (efficacy in %) (Stellaria media): 100%; Triticum aestivum (efficacy in %) (Triticum aestivum [14]): 20% |
| 0 | 20 | Cn1c(C(F)(F)F)cc(=O)n(-c2cc(Oc3cccnc3OCC(=O)OC[Si](C)(C)C)c(Cl)cc2F)c1=O [I.15-201] | 100 | 100 | – | 100 | – | 100 | 100 | 100 | 100 | 100 | 100 | 100 | 100 | 100 | 100 | 100 | 100 | 100 | Alopecurus myosuroides (efficacy in %) (Alopecurus myosuroides [16]; application rate 80 g/ha): 100%; Echinochloa crus-galli (efficacy in %) (Echinochloa crus-galli [17]; application rate 80 g/ha): 100%; Pharbitis purpurea (efficacy in %) (Pharbitis purpurea [27]): 100%; Zea mays (efficacy in %) (Zea mays [28]): 0% |
| 0 | 10 | COCCOC(=O)COc1ncccc1Oc1cc(-n2c(=O)cc(C(F)(F)F)n(C)c2=O)c(F)cc1[N+](=O)[O-] [I.14-1] | – | – | 80 | – | 100 | – | – | – | – | – | – | – | – | – | – | – | – | – | Amaranthus retroflexus (efficacy in %) (Amaranthus retroflexus [1]; application rate 20 g/ha): 100%; Alopecurus myosuroides (efficacy in %) (Alopecurus myosuroides [2]; application rate 20 g/ha): 90%; Echinochloa crus-galli (efficacy in %) (Echinochloa crus-galli [3]; application rate 20 g/ha): 100%; Setaria viridis (efficacy in %) (Setaria viridis [4]; application rate 20 g/ha): 100%; Abutilon theophrasti (efficacy in %) (Abutilon theophrasti [6]; application rate 20 g/ha): 100%; Viola tricolor (efficacy in %) (Viola tricolor [8]; application rate 20 g/ha): 100%; Polygonum convolvulus (efficacy in %) (Polygonum convolvulus [9]; application rate 20 g/ha): 100%; Digitaria sanguinalis (efficacy in %) (Digitaria sanguinalis [10]; application rate 20 g/ha): 100%; Veronica persica (efficacy in %) (Veronica persica [11]; application rate 20 g/ha): 100%; Lolium rigidum (efficacy in %) (Lolium rigidum [29]): 80%; Pharbitis purpurea (efficacy in %) (Pharbitis purpurea [12]; application rate 20 g/ha): 100% |
| – | – | Cn1c(C(F)(F)F)cc(=O)n(-c2cc(Oc3cccnc3OCC(=O)OCC3OCCO3)c(Cl)cc2F)c1=O [I.15-424] | 100 | 100 | 100 | 100 | – | 100 | 100 | 100 | 100 | 100 | 100 | 100 | 100 | 100 | 100 | 100 | 100 | 100 | Alopecurus myosuroides (efficacy in %) (Alopecurus myosuroides [16]; application rate 20 g/ha): 80%; Echinochloa crus-galli (efficacy in %) (Echinochloa crus-galli [17]; application rate 20 g/ha): 90%; Pharbitis purpurea (efficacy in %) (Pharbitis purpurea [27]): 100%; Matricaria inodora (efficacy in %) (Matricaria inodora [7]; application rate 5 g/ha): 100%; Triticum aestivum (efficacy in %) (Triticum aestivum [30]): 10% |

Source: US20220289708A1, “SUBSTITUTED N-PHENYL URACILS, SALTS THEREOF AND THEIR USE AS HERBICIDAL AGENTS” (Bayer Aktiengesellschaft, priority 2019, published 2022)
